What is called solubility is the dissolved amount per volume that the medium holds. High values mean a readily soluble substance, low ones a poorly soluble substance.

Series [1] can be described thus: Drug level in Wistar rat CSF at 100 mg/kg, po measured after 1 hr. It counts as ADME, organism-based, Cerebrospinal fluid. The conditions noted are these: read-out: Drug uptake.
Series [2] in a line: Aqueous solubility of the compound at pH 7. It counts as physicochemical.
The nature of series [3]: Plasma concentration in Wistar rat at 100 mg/kg, po measured after 1 hr. It counts as ADME, organism-based.
Series [4] can be described thus: Drug level in Wistar rat brain at 100 mg/kg, po measured after 1 hr. The format is ADME, organism-based. The conditions noted are these: read-out: Drug uptake.
Series [5] is described as follows: Intrinsic clearance in rat liver microsomes. To be noted: read-out: CLH. The format is ADME, microsome. A general note: Liver microsomes are vesicles of endoplasmic reticulum, rich in cytochrome P450 enzymes.
Series [6] can be described thus: Fraction unbound in Wistar rat plasma at 100 mg/kg, po measured after 1 hr. It counts as ADME, organism-based. To be noted: in vivo.
A short description of series [7]: Drug level in Wistar rat CSF at 10 mg/kg, po measured after 1 hr. It counts as ADME, organism-based, Cerebrospinal fluid. The conditions noted are these: read-out: Drug uptake.
Series [8] is described as follows: Fraction unbound in Wistar rat plasma at 10 mg/kg, po measured after 1 hr. It counts as ADME, organism-based. The conditions noted are these: in vivo.
Series [9] is described as follows: Drug level in Wistar rat brain at 10 mg/kg, po measured after 1 hr. It counts as ADME, organism-based. To be noted: read-out: Drug uptake.
Series [10] in a line: Plasma concentration in Wistar rat at 10 mg/kg, po measured after 1 hr. The format is ADME, organism-based.

In brackets after ≈: the same amount, converted by molar mass.

For `Cc1onc(CNC(=O)c2c3c(c(Cl)n2C)CC(C)(C)CC3)c1Cn1cccn1`, the concentration at 1 h amounted to 17 nM in series [1], 530 nM in [3] and 1020 nM in series [4]. The molecule further had a solubility in [2] of 7 µg/mL (≈ 16.8 µM). In addition, in series [5], the microsomal CLint was above 1250 µL/min/mg. Further, the “Cp(f)” value in series [6] amounted to 1.6 nM.

As for `Cn1c(Cl)c2c(c1C(=O)NCc1ccncc1OCC(F)(F)F)CCC(C)(C)C2`, the concentration at 1 h in [1] is 23 nM; in series [3], 5210 nM; in [4], 12100 nM. The molecule also came in with a solubility in [2] of 1 µg/mL (≈ 2.33 µM). Besides, in series [5], the microsomal CLint amounted to 645 µL/min/mg. Besides, in series [6], the “Cp(f)” value amounted to 5.2 nM.

On to `Cn1c(Cl)c2c(c1C(=O)NCc1ncccc1N1CC[C@H](F)C1)CCC(C)(C)C2`, for which the solubility in [2] is below 1 µg/mL.

`CC(C)OCc1ccccc1CNC(=O)c1c2c(c(Cl)n1C)CC(C)(C)CC2`: the concentration at 1 h was below 0.7 nM in series [1], 397 nM in series [3] and 436 nM in series [4]. In [2], this molecule displayed a solubility below 1 µg/mL. Further, the microsomal CLint in series [5] is above 1250 µL/min/mg. For the same molecule, in [6], the “Cp(f)” value is below 0.4 nM.

The molecule `Cn1c(Cl)c2c(c1C(=O)NCc1cccnc1OCC(F)(F)F)CCC(C)(C)C2` displayed a solubility in series [2] below 1 µg/mL. Moreover, the concentration at 1 h in series [7] amounted to 6 nM; in series [9] it was 4720 nM; in series [10], 353 nM. For the same molecule, in series [8], the “Cp(f)” value is on record as below 0.35 nM. In addition, the microsomal CLint in [5] was 420 µL/min/mg.

The values above are taken from ChEMBL document CHEMBL4177630, “Discovery and evaluation of Cav3.2-selective T-type calcium channel blockers” (Bioorg Med Chem Lett, 2017).
